3 molecules from US8148112B2, “Sugar chain containing 4-position halogenated galactose and application thereof” (National University Corporation Hokkaido University, priority 2005, dated 2012) can be followed below.

The target in series [1] is T1, rat-derived α2,3-N-sialyltransferase (Rattus norvegicus, UniProt Q02734).
T1 construct: purchased Calbiochem
T1 sequence (Q02734 1-374): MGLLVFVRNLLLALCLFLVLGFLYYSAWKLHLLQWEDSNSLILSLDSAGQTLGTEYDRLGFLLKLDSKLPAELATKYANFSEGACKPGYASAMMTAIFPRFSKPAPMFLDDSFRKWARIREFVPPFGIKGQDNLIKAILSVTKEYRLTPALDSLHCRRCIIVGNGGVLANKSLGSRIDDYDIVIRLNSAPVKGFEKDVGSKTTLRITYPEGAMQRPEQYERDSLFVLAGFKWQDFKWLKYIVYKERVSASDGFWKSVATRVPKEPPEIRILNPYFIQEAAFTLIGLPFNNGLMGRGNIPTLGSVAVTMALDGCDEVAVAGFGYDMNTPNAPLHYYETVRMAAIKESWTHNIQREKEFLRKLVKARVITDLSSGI
Nature of the series: Enzymatic α2,3-sialyltransfer reaction to pyridylaminated (PA) 4F-galactosylchitobiose, HPLC percent conversion. The class given is biochemical. The settings on record: 10 μM acceptor, 100 μM CMP-NeuAc, 100 mU/mL enzyme, 25° C.; percent conversion compared with PA galactosylchitobiose. The method, then: To a 10 mM HEPES-NaOH buffer (pH 7.5) containing 10 mM manganese chloride, 100 mM sodium chloride, 100 μM CMP-NeuAc, 0.02% (w/v) BSA, and 10 μM pyridylaminated (PA) 4F-galactosylated chitobiose, rat-derived α2,3-N-sialyltransferase (product of Calbiochem) (100 mU/mL-reaction mixture) was added, and the mixture was allowed to react at 25° C. In a similar manner, a similar mixture employing pyridylaminated (PA) galactosylated chitobiose as an acceptor was allowed to react as a control reaction.
An aliquot was sampled from the reaction mixture at hour 2.5 and hour 24 after initiation of the reaction. Finally, the reaction was terminated through addition of 10 mM sodium phosphate (pH 4.3) (9 times in volume) and vigorous stirring. The product was analyzed through HPLC employing a C30-UG-5 column. […] A fraction corresponding to each peak was collected and dried under reduced pressure. […] Mass analysis detected, in the reaction employing pyridylaminated (PA) 4F-galactosylchitobiose, an [M+H]^+ peak (m/z 959.45), thereby confirming formation of compound 17. Also, in the reaction employing pyridylaminated (PA) galactosyl chitobiose, an [M+H]^+ peak (m/z 957.31) was detected, thereby confirming formation of compound 18. […]

Series [2] deals with T2, rat-derived α2,6-N-sialyltransferase (Rattus norvegicus, UniProt P13721).
T2 construct: purchased Calbiochem
T2 sequence (P13721 1-403): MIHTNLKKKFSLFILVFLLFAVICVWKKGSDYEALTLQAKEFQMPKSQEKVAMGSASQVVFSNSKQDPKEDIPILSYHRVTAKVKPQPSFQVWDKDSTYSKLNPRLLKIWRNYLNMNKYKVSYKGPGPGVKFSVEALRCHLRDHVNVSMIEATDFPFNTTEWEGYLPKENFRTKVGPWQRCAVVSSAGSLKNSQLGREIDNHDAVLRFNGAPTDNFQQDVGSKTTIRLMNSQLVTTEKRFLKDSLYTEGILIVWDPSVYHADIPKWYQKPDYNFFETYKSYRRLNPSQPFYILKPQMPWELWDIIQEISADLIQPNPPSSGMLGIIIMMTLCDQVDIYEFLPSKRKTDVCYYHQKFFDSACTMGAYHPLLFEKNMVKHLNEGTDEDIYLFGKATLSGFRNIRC
Kind of series: Enzymatic α2,6-sialyltransfer reaction to pyridylaminated (PA) 4F-galactosylchitobiose, HPLC percent conversion. It counts as biochemical. The settings on record: 10 μM acceptor, 100 μM CMP-NeuAc, 40 mU/mL enzyme, 25° C.; percent conversion compared with PA galactosylchitobiose. The method, then:
To a 10 mM HEPES-NaOH buffer (pH 7.5) containing 10 mM manganese chloride, 100 mM sodium chloride, 100 μM CMP-NeuAc, 0.02% (w/v) BSA, and 10 μM pyridylaminated (PA) 4F-galactosylated chitobiose, rat-derived α2,6-N-sialyltransferase (product of Calbiochem) (40 mU/mL-reaction mixture) was added, and the mixture was allowed to react at 25° C. In a similar manner, a similar mixture employing pyridylaminated (PA) galactosylated chitobiose as an acceptor was allowed to react as a control reaction.
An aliquot was sampled from the reaction mixture at hour 1, hour 2.5, hour 8, and hour 24 after initiation of the reaction. Finally, the reaction was terminated through addition of a mixture of 0.5M triethylamine-acetic acid (pH 7.3) and acetonitrile (25:75) (19 times in volume) and vigorous stirring. The product was analyzed through HPLC. […] Mass analysis detected an [M+H]^+ peak (m/z 659.74) attributed to compound 19, thereby confirming formation of compound 19. Also, in the control reaction employing UDP-Gal, an [M+H]^+ peak (m/z 657.74) attributed to compound 20 was detected through MALDI-TOF-MS, confirming formation of compound 20. […]

The nature of series [3]: Galactokinase (GalK) activity of the enzyme liquid. The class given is biochemical, E. coli. The settings on record: galactokinase activity of purified enzyme liquid, method by Takeda et al. The method, then: E. coli (JM109 strain) (from Takara Bio) was transformed with a pTrc-galK plasmid (JP-A-2002-335988) in which a gene encoding E. coli-derived GalK has been inserted. The transformed cells were inoculated to a 2×YT medium (100 mL) containing 100 μg/mL ampicillin, followed by shake culturing at 37° C. When the number of the cells reached 1×10^8 cells/mL, isopropyl-p-thiogalactoside (IPTG) was added to the culture so as to adjust the final concentration to 0.2 mM, and shake culture was continued for further eight hours. After completion of culturing, cells were collected through centrifugation (9,000×g, 20 min) and suspended in a buffer (20 mM Tris-HCl (pH 7.5) and 1 mM magnesium chloride) (10 mL). The cells were disrupted through ultrasonication, and the product was centrifuged (20,000×g, 10 min), to thereby remove cell residues.
The thus-produced fraction was employed as an enzyme liquid in the following synthesis reactions. The galactokinase (GalK) activity of the enzyme liquid was determined (Table 1). In the present invention, GalK activity was determined through a method by Takeda et al. (JP-A-2002-335988).

A short description of series [4]: Galactose-1-phosphate uridylyltransferase (GalT) activity of the enzyme liquid. The settings on record: galactose-1-phosphate uridylyltransferase activity of purified enzyme liquid, method by Takeda et al. It counts as biochemical, E. coli. On the procedure: E. coli (JM109 strain) (from Takara Bio) was transformed with a pTrc-GalT plasmid (JP-A-2002-335988) in which a gene encoding E. coli-derived GalT has been inserted. The transformed cells were inoculated to a 2×YT medium (50 mL) containing 100 μg/mL ampicillin, followed by shake culturing at 37° C. When the number of the cells reached 1×10^8 cells/mL, IPTG was added to the culture so as to adjust the final concentration to 1 mM, and shake culture was continued for further five hours. After completion of culturing, cells were collected through centrifugation (9,000×g, 20 min) and suspended in a buffer (50 mM HEPES-NaOH (pH: 8.0), 0.1 mM zinc sulfate, 10 mM 2-mercaptoethanol, and 50 mM sodium chloride) […]). The cells were disrupted through ultrasonication, and the product was centrifuged (20,000×g, 10 min), to thereby remove cell residues.
The thus-produced fraction was employed as an enzyme liquid in the following synthesis reactions. The galactose-1-phosphate uridylyltransferase (GalT) activity of the enzyme liquid was determined (Table 1). In the present invention, GalT activity was determined through a method by Takeda et al. (JP-A-2002-335988). The thus-yielded galactose-1-phosphate uridylyltransferase is identical to hexose-1-phosphate uridylyltransferase and catalyzes the same reaction (E.C.2.7.7.12).

As to `CC(=O)NC(CNc1ccccn1)[C@H](O)C(O[C@@H]1OC(CO)[C@@H](O[C@@H]2OC(CO)[C@H](F)[C@H](O)C2O)[C@H](O)C1NC(C)=O)C(O)CO` (stereo partly shown) [pyridylaminated (PA) 4F-galactosylchitobiose], the “reactivity of α2,3-sialyltransferase” value in series [1] is “considerably decrease”. Moreover, the “reactivity of α2,6-sialyltransferase” value in series [2] is “considerably decrease”.

B1: GalK: E. coli-derived galactokinase, purified enzyme liquid (protein, UniProt P0A6T3 2-382, looked up)
Galactokinase: SLKEKTQSLFANAFGYPATHTIQAPGRVNLIGEHTDYNDGFVLPCAIDYQTVISCAPRDDRKVRVMAADYENQLDEFSLDAPIVAHENYQWANYVRGVVKHLQLRNNSFGGVDMVISGNVPQGAGLSSSASLEVAVGTVLQQLYHLPLDGAQIALNGQEAENQFVGCNCGIMDQLISALGKKDHALLIDCRSLGTKAVSMPKGVAVVIINSNFKRTLVGSEYNTRREQCETGARFFQQPALRDVTIEEFNAVAHELDPIVAKRVRHILTENARTVEAASALEQGDLKRMGELMAESHASMRDDFEITVPQIDTLVEIVKAVIGDKGGVRMTGGGFGGCIVALIPEELVPAVQQAVAEQYEAKTGIKETFYVCKPSQGAGQC
Regarding B1, in series [3], the Enzymatic activity is reported as 23.1 units/mg protein.

B2: GalT: E. coli-derived galactose-1-phosphate uridylyltransferase, purified enzyme liquid (protein, UniProt P09148 1-348, looked up)
Galactose-1-phosphate …: MTQFNPVDHPHRRYNPLTGQWILVSPHRAKRPWQGAQETPAKQVLPAHDPDCFLCAGNVRVTGDKNPDYTGTYVFTNDFAALMSDTPDAPESHDPLMRCQSARGTSRVICFSPDHSKTLPELSVAALTEIVKTWQEQTAELGKTYPWVQVFENKGAAMGCSNPHPHGQIWANSFLPNEAEREDRLQKEYFAEQKSPMLVDYVQRELADGSRTVVETEHWLAVVPYWAAWPFETLLLPKAHVLRITDLTDAQRSDLALALKKLTSRYDNLFQCSFPYSMGWHGAPFNGEENQHWQLHAHFYPPLLRSATVRKFMVGYEMLAETQRDLTAEQAAERLRAVSDIHFRESGV
The molecule B2 showed an Enzymatic activity in series [4] of 46.7 units/mg protein.
